Test results as given in paper PMC6383986, “Fragment-Based Covalent Ligand Screening Enables Rapid Discovery of Inhibitors for the RBR E3 Ubiquitin Ligase HOIP” (Journal of the American Chemical Society, 2019).
Entries after “also recorded” stand apart in the source; their conditions may differ.

Target: T1, HOIP RBR domain (Homo sapiens, UniProt Q96EP0)
T1 construct: made in house; host or cells: E. coli BL21-GOLD(DE3)
T1 sequence (Q96EP0 697-1072): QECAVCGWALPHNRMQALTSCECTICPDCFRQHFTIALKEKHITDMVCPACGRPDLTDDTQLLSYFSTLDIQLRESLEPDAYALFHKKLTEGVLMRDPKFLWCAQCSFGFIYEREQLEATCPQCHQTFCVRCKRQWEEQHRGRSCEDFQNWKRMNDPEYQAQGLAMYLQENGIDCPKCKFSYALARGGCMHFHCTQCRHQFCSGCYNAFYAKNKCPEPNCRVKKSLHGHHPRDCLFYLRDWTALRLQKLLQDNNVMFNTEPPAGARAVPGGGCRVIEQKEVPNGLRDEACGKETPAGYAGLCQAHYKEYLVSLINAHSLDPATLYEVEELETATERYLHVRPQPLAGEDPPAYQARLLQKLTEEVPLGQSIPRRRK
Assay: Fluorescence-based ubiquitin thioester transfer assay
Format: biochemical
Conditions: HOIP RBR prelabeled with compound; E2 UbcH7
Method: overnight, and further purified by size-exclusion chromatography (Superdex 75/ÄKTA purifier).
The appropriate fractions were concentrated to 4 mL in a 3.5 kDa MWCO protein concentrator (Merck). The protein concentration was measured on a Nanodrop UV spectrophotometer (absorbance at 650 nm) as 19 µM and corroborated by SDS PAGE. Labelling was confirmed by protein LC-MS (Supplementary Figure S10). The labelled protein was aliquoted, flash frozen and […]
Supplementary Figure S10. TIC traces of the deconvoluted protein masses of the M1C ubiquitin mutant (M1C Ub) and the AlexaFluor647 labelled M1C ubiquitin mutant (M1C UbA647).
Formation of the HOIP RBR-(5) conjugate
The HOIP RBR domain (7.5 µM) was incubated (Eppendorf Thermomixer) with inhibitor (5) (750 µM, 1.5% DMSO) in 50 mM HEPES, 150 mM NaCl, pH 7.5 buffer at 600 rpm, 23 °C for 18 h. […] The protein concentration was measured on Nanodrop UV spectrophotometer (absorbance at 280 nm), and the protein was flash frozen in liquid nitrogen […]
(10 min), HOIP RBR or HOIP-RBR-(5) conjugate (5 min), C-terminally His6-tagged ubiquitin (10 min). […] The aliquots were analyzed by SDS PAGE and the gels scanned at 700 nm (LICOR Odyssey CLx) using auto-adjustment of the fluorescence intensity, then stained with Coomassie (Figure 4B and Supplementary Figure S11). […]

COC(=O)/C=C/CNC(=O)c1cc2c([nH]c1=O)CCC2 [Compound 5]
formation of E3~Ub thioester / loading of ubiquitin onto HOIP RBR: inhibits formation of the E3∼Ub thioester intermediate; also recorded: effectively prevented the loading of ubiquitin onto the E3
